In patent publication US20250268261A1, “METHODS FOR THE CONTROL OF POA ANNUA IN WARM SEASON TURFGRASS USING THIENCARBAZONE-METHYL” (Discovery Purchaser Corporation, priority 2024, published 2025):

Tests used:
Format in all cases: in vivo
Poa annua [1] = assay: Single application to warm season turfgrass according to the disclosed methods (summary statement); conditions: early post-emergence, for at least 120 days following application
Poa annua [2] = assay: Field trial, bermudagrass stands infested with Poa annua, Clayton, North Carolina, autumn 2022; conditions: FIG. 11
Description: (§1) As used herein, the term “Abbott's percentage reduction,” in all of its forms, refers to a measure of percentage control relative to the population in an untreated control stand of turfgrass. Rather than representing a simple percentage control on a per treatment basis, the Abbott's percentage reduction measure accounts for naturally occurring shifts in the target population and limits rating bias over time. Abbott's percentage reduction may be represented by the following
Stands of bermudagrass infested with Poa annua were treated with thiencarbazone-methyl (TCM) at different stages of Poa annua development and under different climatological conditions in a set of trials conducted during the autumn of 2022 in Clayton, North Carolina. Stands of bermudagrass containing Poa annua in a pre-emergent growth phase were treated with thiencarbazone-methyl (TCM) on September 23rd. Stands of bermudagrass containing Poa annua in an early post-emergent growth state characterized by having two or fewer tillers were treated with thiencarbazone-methyl (TCM) on November 21st. Stands of bermudagrass containing Po annua in a late post-emergent growth state characterized by having more than two tillers were treated with thiencarbazone-methyl (TCM) on December 8th. The Clayton trial data is shown in FIG. 11 while FIG. 13 provides the corresponding environmental data for Clayton during the trials. […]

Poa annua [3] = assay: Field trial, bermudagrass stands infested with Poa annua, Blacksburg, Virginia, autumn 2022; conditions: FIG. 10
Description: as §1
Stands of bermudagrass infested with Poa annua were treated with thiencarbazone-methyl (TCM) at different stages of Poa annua development and under different climatological conditions in a set of trials conducted during the autumn of 2022 in Blacksburg, Virginia. Stands of bermudagrass containing Poa annua in a pre-emergent growth phase were treated with thiencarbazone-methyl (TCM) on September 14th. Stands of bermudagrass containing Poa annua in an early post-emergent growth state characterized by having two or fewer tillers were treated with thiencarbazone-methyl (TCM) on October 5th. Stands of bermudagrass containing Poa annua in a late post-emergent growth state characterized by having more than two tillers were treated with thiencarbazone-methyl (TCM) on November 9th. The Blacksburg trial data is shown in FIG. 10 while FIG. 12 provides the corresponding environmental data for Blacksburg during the trials. The Days After Application “DAA” shown in FIG. 10 refers to the days after thiencarbazone-methyl (TCM) was applied to the stands of bermudagrass containing Poa annua in a pre-emergent growth phase on Sep. 14, 2022. The horizontal line in FIG. 12 represents the temperature (66 degrees Fahrenheit) at which peak Poa annua germination has been observed. […] However, treatment of bermudagrass stands containing Poa annua at a later growth stage fell well below the minimum commercially acceptable 80% Abbott control threshold effectiveness.

`COC(=O)c1csc(C)c1S(=O)(=O)NC(=O)n1nc(OC)n(C)c1=O` [thiencarbazone-methyl, methyl 4-[(3-methoxy-4-methyl-5-oxo-1,2,4-triazole-1-carbonyl)sulfamoyl]-5-methylthiophene-3-carboxylate] was tested, and the “reduction in Poa annua population” value (Poa annua [1]) was ≥ 80%, the “Abbott control threshold effectiveness” value (Poa annua [2]; 30 g/ha, early post-emergent growth phase (two or fewer tillers, treated November 21), 117 days after the pre-emergence treatment application) was ≥ 80% and the “Abbott control threshold effectiveness” value (Poa annua [2]; Poa annua at a later growth stage (more than two tillers, treated December 8)) was < 80%. For the same compound, the “Abbott control threshold effectiveness” value (Poa annua [3]; 15 g/ha, early post-emergent growth phase (two or fewer tillers, treated October 5), 77, 91 and 148 days after the pre-emergence treatment application) was ≥ 80%, the “Abbott control threshold effectiveness” value (Poa annua [3]; 30 g/ha, early post-emergent growth phase (two or fewer tillers, treated October 5), 77, 91 and 148 days after the pre-emergence treatment application) was ≥ 80% and the “Abbott control threshold effectiveness” value (Poa annua [3]; Poa annua at a later growth stage (more than two tillers, treated November 9)) was < 80%.
